Laboratory results reported in patent publication US6979686B1, “Substituted pyrazoles as p38 kinase inhibitors” (Pharmacia Corporation, priority 2001, dated 2005).
Structures can show the parent of a compound that is named as a salt. Where two headings read alike, the source gives them in different places. Blank lines part the entries; values can stand above or below the compound they belong to.

Legend:
[1] = target: T1, human p38 kinase alpha (Homo sapiens, UniProt Q16539); experiment: p38 kinase in vitro assay, phosphorylation of biotinylated PHAS-I with 32P-ATP; format: biochemical; details: for P38 alpha kinase % inhib @ conc. (uM): @ 1.0 uM; for IC50: read-out: P38 alpha kinase IC50
T1 construct: GST (N, cleaved yes); made in house; host or cells: E. coli DH10B

[2] = system: TNF alpha, BALB/c mice injected with LPS; experiment: Mouse model of LPS-induced TNF alpha production; format: in vivo; details: for Mouse LPS Model % TNF inhib @ dose @ predose time / inhibition in vivo at 30 mg/kg: 30 mpk oral gavage; for inhibition in vivo at 30 mg/kg: Mus musculus, read-out: Mouse LPS Model % TNF inhib @ dose @ predose time; for mLPS 8 h percent inhibition: Table 6, mouse LPS, head '8 h', dose 30, oral gavage
Description: Mouse Model of LPS-induced TNF Alpha Production:
TNF alpha was induced in 10-12 week old BALB/c female mice by tail vein injection with 100 ng lipopolysaccharide (from S. Typhosa) in 0.2 ml saline. One hour later mice were bled from the retroorbital sinus and TNF concentrations in serum from clotted blood were quantified by ELISA.
Efficacy was determined at each time point as percent inhibition of serum TNF levels relative to LPS injected mice that received vehicle only.
In vivo assessment of the ability of the compounds to inhibit LPS-stimulated TNP release in the mouse is shown in the column identified as: • “Mouse LPS Model, % TNF inhib @ dose @ predose time” wherein in the dose is milligram per kilogram (mpk) administered by oral gavage and the predose time indicates the number of hours before LPS challenge when the compound is administered.

[3] = system: TNF-α, U937 human histiocytic lymphoma cell line; experiment: LPS stimulation of TNF production by U937 cells; format: cell-based
In short: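 U937 cells differentiated 24 h with 20 ng/ml PMA, rested 24-48 h, used at 2 million cells/ml. Compounds in 0.1% DMSO final; LPS (E. coli, 100 ng/ml final) stimulation for 4 h at 37° C. Released TNF-α measured by ELISA; IC50 (μM).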

[4] = system: TNF-α, rats challenged with LPS; experiment: Rat assay, LPS-stimulated TNF release; format: in vivo; details: for inhibition in vivo at 3 mg/kg / Rat LPS Model % inhib @ dose @ predose time: 3 mpk oral gavage, −4 h before LPS challenge; for inhibition in vivo at 3 mg/kg: read-out: Rat LPS Model % inhib @ dose @ predose time
Description: The efficacy of the novel compounds in blocking the production of TNF also was evaluated using a model based on rats challenged with LPS. Male Harlen Lewis rats [Sprague Dawley Co.] were used in this model. Each rat weighed approximately 300 g and was fasted overnight prior to testing. Compound administration was typically by oral gavage (although intraperitoneal, subcutaneous and intravenous administration were also used in a few instances) 1 to 24 hours prior to the LPS challenge. Rats were administered 30 μg/kg LPS [salmonella typhosa, Sigma Co.] intravenously via the tail vein. Blood was collected via heart puncture 1 hour after the LPS challenge. Serum samples were stored at −20° C. until quantitative analysis of TNF-α by Enzyme Linked-Immuno-Sorbent Assay (“ELISA”) [Biosource]. Additional details of the assay are set forth in Perretti, M., et al., Br. J. Pharmacol. (1993), 110, 868-874, which is incorporated by reference in this application.
In vivo assessment of the ability of the compounds to inhibit LPS-stimulated TNF release in the rat is shown in the column identified as: • “Rat LPS Model, % TNF inhib dose @ predose time” wherein in the dose is milligram per kilogram (mpk) administered by oral gavage and the predose time indicates the number of hours before LPS challenge when the compound is administered.
In vivo assessment of the ability of the compounds to inhibit LPS-stimulated TNF release in the rat is shown in the column identified as: • “Rat LPS Model % Inhibition@dose@predose time” wherein the dose is milligram per kilogram (mpk) administered by oral gavage and the predose time indicates the number of hours before LPS challenge when the compound is administered.
(§1) In vitro p38 alpha kinase inhibitory data are shown in the column identified as “p38 alpha IC50 (μM)”. In vitro human whole blood assay data for measuring the ability of the compounds to inhibit TNF production in human whole blood stimulated with LPS are shown in the column identified as: “HWB IC50 (μM)”. In vivo assessment of the ability of the compounds to inhibit LPS-stimulated TNF-release in the rat is shown in the column identified as: “ratLPS/%Inh@dose(mg/kg)”, wherein the dose is in milligram per kilogram (mg/kg) administered by oral gavage, 4 hours before LPS challenge.

[5] = system: human TNF, human whole blood stimulated with LPS; experiment: TNF inhibition: human whole blood assay; format: cell-based; details: for TNF Inhibition-Human Whole Blood Assay: Table 9, percentage, concentration not given
Description: TNF Inhibition: Human Whole Blood Assay
Human peripheral blood is obtained in heparinized tubes. A 190 μL aliquot of blood is placed in each well of a 96 well u-bottom plate. […] After one hour of incubation at 37° C., […] of lipopolysaccharide (Salmonella typhosa, Sigma) in phosphate buffered saline is added resulting in a final concentration of […]. After four to five hours of incubation at 37° C., the supernatants are harvested and assayed at 1:10 or 1:20 dilutions for human TNF using ELISA.
In vitro human whole blood assay data for measuring the ability of the compounds to inhibit TNF production in human whole blood stimulated with LPS are shown in the column identified as: • “Human Whole Blood IC50, μM or %Inhib@conc. (μM)”
as §1

[6] = TNF production, human U937 cells stimulated with LPS, read-out: U937 Cell IC50
[7] = Homo sapiens, U-937, TNF production, human U937 cells stimulated with LPS, read-out: U937 Cell IC50
[8] = in vitro P38-alpha kinase inhibition
[9] = Table 6, U937 cell assay, read-out: U937 IC50

T1 sequence (Q16539 whole entry): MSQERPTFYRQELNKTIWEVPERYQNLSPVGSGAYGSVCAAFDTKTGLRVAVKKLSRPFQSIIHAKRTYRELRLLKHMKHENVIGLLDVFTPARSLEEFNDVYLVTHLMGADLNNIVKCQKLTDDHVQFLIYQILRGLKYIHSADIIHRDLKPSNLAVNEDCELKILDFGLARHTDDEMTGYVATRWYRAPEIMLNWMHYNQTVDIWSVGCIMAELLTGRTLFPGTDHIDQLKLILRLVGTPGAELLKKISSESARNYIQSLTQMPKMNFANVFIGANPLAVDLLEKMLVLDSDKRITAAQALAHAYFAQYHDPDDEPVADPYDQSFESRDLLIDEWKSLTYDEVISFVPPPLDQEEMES

P38 alpha kinase % inhib @ conc. (uM) [1]: 74% @
IC50 [3, 6]: 680 nM
Compound: CC(=O)OCC(=O)NCCCc1[nH]nc(-c2ccc(F)cc2)c1-c1ccncc1 [Example B-1158]
Mouse LPS Model % TNF inhib @ dose @ predose time ([2]; −6 h before LPS challenge): 53% @ 30 mpk @ −6 h

IC50 ([1]; in vitro P38-alpha kinase): < 100 nM
IC50 [3, 7]: 410 nM
Compound: O=C(c1ccccc1F)N1CCC(c2[nH]nc(-c3ccc(F)cc3)c2-c2ccncc2)CC1 [Example B-1372]
inhibition in vivo at 30 mg/kg ([2]; predose time not printed ("@ -")): 48%

Compound: CC(NS(=O)(=O)c1ccc(Cl)s1)c1[nH]nc(-c2ccc(F)cc2)c1-c1ccncc1 (stereo not drawn) [Example B-0650]
inhibition in vivo at 3 mg/kg ([4]; Rattus norvegicus, po): 8%
IC50 [1, 8]: 6 nM

Compound: 5-[2-(1,1-DIMETHYL)AMINOETHYL]-4-(4-PYRIDYL)-3-(4-FLUOROPHENYL)PYRAZOLE [Example C-114]
IC50 ([5]; TNF production, human whole blood stimulated with LPS, read-out: Human Whole Blood IC50, μM or % Inhib @ conc. (μM): IC50): 1.73 µM

melting point: 153.46 °C
Compound: CCn1nc(C)c(-c2ccncc2)c1-c1ccc(Cl)cc1 [Example A-207, 4-[3-(4-chlorophenyl)-2-ethyl-5-methyl-1H-pyrazol-4-yl]pyridine]

Compound: COc1ccc(S(=O)(=O)NC(C)c2[nH]nc(-c3ccc(F)cc3)c2-c2ccncc2)cc1 (stereo not drawn) [Example B-0574]
inhibition in vivo at 3 mg/kg ([4]; Rattus norvegicus, po): 37%

melting point: 182.6 to 183 °C
Compound: O=C(C(=C1SCS1)c1ccncc1)c1ccc(OC(F)(F)F)cc1 [Example A-395]

Compound: O=C(c1ccc(F)cc1)N1CCC(c2[nH]nc(-c3ccc(F)cc3)c2-c2ccncc2)CC1 [Example B-1360]
inhibition in vivo at 3 mg/kg ([4]; Rattus norvegicus, po): 54%

Compound: O=C1CCN(c2[nH]nc(-c3ccc(F)cc3)c2-c2ccncc2)CC1 [Example A-378, 1-[5-(4-fluorophenyl)-4-(4-pyridinyl)-1H-pyrazol-3-yl]-4-piperidinone]
TNF Inhibition-Human Whole Blood Assay [5]: 49%

IC50 ([5]; Homo sapiens, Table 10, read-out: TNF Inhibition-Human Whole Blood Assay): 1.47 µM
Compound: Clc1ccc(-c2n[nH]c(SCCOC3CCCCO3)c2-c2ccncc2)cc1 (stereo not drawn) [Example A-474]

Compound: COc1ccc(-n2nc(-c3ccc(F)cc3)c(-c3ccncc3)c2-c2cnc[nH]2)cc1 [Example A-323, 4-[3-(4-fluorophenyl)-5-(1H-imidazol-4-yl)-1-(4-methoxyphenyl)-1H-pyrazol-4-yl]pyridine]
inhibition in vivo at 30 mg/kg ([4]; Rattus norvegicus, po, read-out: Rat LPS Assay % Inhibition, Table 8, dose 30.0 mg/kg): 40%
melting point: 124 to 126 °C

Compound: O=C(C1CC1)N1CCC(c2[nH]nc(-c3ccc(F)cc3)c2-c2ccncc2)CC1 [Example B-1364]
inhibition in vivo at 3 mg/kg ([4]; Rattus norvegicus, po): 17%
IC50 ([1]; in vitro P38-alpha kinase): 9 nM
inhibition in vivo at 30 mg/kg ([2]; −6 h before LPS challenge): 53%
IC50 [3, 7]: 270 nM

Compound: Fc1ccc(-c2n[nH]c(N3CCC4(CC3)OCCO4)c2-c2ccncc2)cc1 [Example A-380, 8-[5-(4-fluorophenyl)-4-(4-pyridinyl)-1H-pyrazol-3-yl]-1,4-dioxa-8-azaspiro[4.5]decane]
TNF Inhibition-Human Whole Blood Assay [5]: 32%

Compound: OC1CCN(c2[nH]nc(-c3ccc(F)cc3)c2-c2ccncc2)CC1 [Example A-379, 1-[5-(4-fluorophenyl)-4-(4-pyridinyl)-1H-pyrazol-3-yl]-4-piperidinol]
TNF Inhibition-Human Whole Blood Assay [5]: 44%

melting point: 218.17 °C
Compound: Clc1ccc(-c2n[nH]cc2-c2ccncn2)cc1 [Example A-310, 4-[3-(4-chlorophenyl)-1H-pyrazol-4-yl]pyrimidine]

melting point: 193.3 to 193.4 °C
Compound: N#Cc1ccc(C(=O)C(=C2SCS2)c2ccncc2)cc1 [Example A-396]

Compound: CC(NS(=O)(=O)c1cccc(Cl)c1)c1[nH]nc(-c2ccc(F)cc2)c1-c1ccncc1 (stereo not drawn) [Example B-0639]
inhibition in vivo at 3 mg/kg ([4]; Rattus norvegicus, po): 50%
IC50 [1, 8]: 51 nM

Compound: O=C(NCCCc1[nH]nc(-c2ccc(F)cc2)c1-c1ccncc1)C1CC1 [Example B-1166]
Rat LPS Model % inhib @ dose @ predose time [4]: 50% @ 3 mpk @ −4 h
P38 alpha kinase % inhib @ conc. (uM) [1]: 77.0% @
Mouse LPS Model % TNF inhib @ dose @ predose time ([2]; −6 h before LPS challenge): 50% @ 30 mpk @ −6 h

IC50 [3, 9]: 180 nM
Compound: Fc1ccc(CNc2cc(-c3cn(CCN4CCOCC4)nc3-c3ccc(F)cc3)ccn2)cc1 [Example A-285, N-[(4-fluorophenyl)methyl]-4-[3-(4-fluorophenyl)-1-[2-(4-morpholinyl)ethyl]-1H-pyrazol-4-yl]-2-pyridinamine]
mLPS 8 h percent inhibition [2]: 11%

melting point: 189.9 to 190.1 °C
Compound: Clc1ccc(-c2n[nH]c(SCCN3CCCC3)c2-c2ccncc2)cc1 [Example A-460]

Compound: CC(NC(=O)C(C)(C)C)c1[nH]nc(-c2ccc(F)cc2)c1-c1ccncc1 (stereo not drawn) [Example B-0601]
inhibition in vivo at 3 mg/kg ([4]; Rattus norvegicus, po): 43%
IC50 [1, 8]: 89 nM

IC50 [1, 8]: 450 nM
IC50 ([3]; Homo sapiens, U-937, TNF production in human U937 cells stimulated with LPS, read-out: U937 Cell IC50): 1010 nM
Compound: CC(C)C(=O)NC(C)c1[nH]nc(-c2ccc(F)cc2)c1-c1ccncc1 (stereo not drawn) [Example B-0532]
inhibition in vivo at 30 mg/kg ([2]; −6 h before LPS challenge): 41%

Compound: O=C(NCCCc1[nH]nc(-c2ccc(F)cc2)c1-c1ccncc1)c1ccc(F)cc1 [Example B-1161]
Rat LPS Model % inhib @ dose @ predose time [4]: 45% @ 3 mpk @ −4 h
P38 alpha kinase % inhib @ conc. (uM) [1]: 64.0% 2
Mouse LPS Model % TNF inhib @ dose @ predose time ([2]; −6 h before LPS challenge): 40% @ 30 mpk @ −6 h

IC50 ([5]; Table 10, read-out: TNF Inhibition-Human Whole Blood Assay): 0.28 µM
Compound: Clc1ccc(-c2n[nH]c(SC3CCNCC3)c2-c2ccncc2)cc1 [A-459 (salt)]

IC50 [3, 9]: 450 nM
Compound: Fc1ccc(CNc2cc(-c3cn(CCN4CCOCC4)nc3-c3ccc(F)cc3)ccn2)cc1 [Example A-276, N-[(4-fluorophenyl)methyl]-4-[3(or 5)-(4-fluorophenyl)-1-[[2-(4-morpholinyl)ethyl]-1H-pyrazol-4-yl]-2-pyridinamine]
mLPS 8 h percent inhibition [2]: −24%

Compound: CC(=O)N1CCC(c2[nH]nc(-c3ccc(F)cc3)c2-c2ccncc2)CC1 [Example B-1363]
Rat LPS Model % inhib @ dose @ predose time [4]: 53% @ 3 mpk @ −4 h
IC50 ([1]; in vitro P38-alpha kinase): 9 nM
Mouse LPS Model % TNF inhib @ dose @ predose time ([2]; −6 h before LPS challenge): 51.0% @ 30 pmk @

Compound: Cc1ccc(S(=O)(=O)NC(C)c2[nH]nc(-c3ccc(F)cc3)c2-c2ccncc2)cc1 (stereo not drawn) [Example B-0576]
inhibition in vivo at 3 mg/kg ([4]; Rattus norvegicus, po): 65%
IC50 [1, 8]: 68 nM

melting point: 163 to 165 °C
Compound: O=C(O)C(Cc1cnc[nH]1)Sc1[nH]nc(-c2ccc(Cl)cc2)c1-c1ccncc1 (stereo not drawn) [Example A-471]

P38 alpha kinase % inhib @ conc. (uM) [1]: 79.0% @
IC50 [3, 6]: 590 nM
Compound: C=CCOC(=O)NCCCc1[nH]nc(-c2ccc(F)cc2)c1-c1ccncc1 [Example B-1162]
Mouse LPS Model % TNF inhib @ dose @ predose time ([2]; −6 h before LPS challenge): 40% @ 30 mpk @ −6 h

Compound: Fc1ccc(-c2n[nH]cc2-c2ccnc(NCCN3CCCCC3)c2)cc1 [Example A-375, 4-[3-(4-fluorophenyl)-1H-pyrazol-4-yl]-N-[2-(1-piperidinyl)ethyl]-2-pyridinamine]
TNF Inhibition-Human Whole Blood Assay [5]: 28%
